Laboratory results taken from patent publication US12692396B2, “Fluorescent labeling agent and fluorescent dye” (artience Co., Ltd., priority 2020, dated 2026).

Key:
[1] = system: Human epithelium cancer cells A431; experiment: Evaluation of visibility of cell (fluorescent microscope); type: cell-based; parameters: key: P (Pass): Clear; F (Failure): Unclear
Procedure: <Evaluation of Visibility of Cell>
(§1) Human epithelium cancer cells A431 were seeded in a 96-well plate (1×10^4 cells/well). The A431 were cultured for 24 hours using an RPMI 1640 medium to which 10% fetal bovine serum (FBS) and 1% penicillin-streptomycin had been added in an incubator (37° C., 5% CO2-containing Air, humidified environment).
After cultivation, the medium was removed, and the fluorescent labeling agents prepared in Examples 127 to 189 and Comparative Examples 25 to 37 were added thereto and left to stand in the incubator for one hour. Next, these were washed in the RPMI 1640 medium. The dark field images and fluorescent images of the cells were observed using a fluorescent microscope (manufactured by Keyence Corporation, BZ-X800) equipped with an excitation filter for an appropriate wavelength and a fluorescent filter and evaluated based on the following standards.
• P (Pass): Clear • F (Failure): Unclear
The evaluation results of the visibility of the cells labeled with the fluorescent labeling agents 1, 15, 19, 24, 25, 68, and 75 are sequentially shown in FIGS. 2 to 8 (magnification: 10 times, optical uptake time: 1 second).
The evaluation results of the visibility of the cells labeled with the fluorescent labeling agents 42 and 53 are sequentially shown in FIGS. 9 to 10 (magnification: 40 times, optical uptake time: 1 second).
From what has been described above, it has been clarified that the fluorescent labeling agent according to the embodiment of the present invention has excellent characteristics as a fluorescent labeling agent.

[2] = system: Human epithelium cancer cells A431; experiment: Evaluation of cell toxicity of fluorescent labeling agent (cell counting kit-8, absorbance at 450 nm); type: cell-based
Procedure: <Evaluation of Cell Toxicity of Fluorescent Labeling Agent>
as §1, with “Next, the” for “The”, “environment). As the RPMI 1640 medium, an RPMI-164-Medium manufactured by Sigma-Aldrich Inc. was used.” for “environment).”
After cultivation, the medium was removed, the fluorescent labeling agents prepared in Examples 83 to 123 and Comparative Examples 25 to 37 and an RPMI 1640 medium containing 1% dimethyl sulfoxide (DMSO medium solution) were added thereto. These were left to stand in the incubator for one hour and then washed in the RPMI 1640 medium. 10 μL of a cell counting kit-8 (manufactured by Dojindo Laboratories.) was added to each well and left to stand in the incubator (37° C., 5% CO2-containing Air, humidified environment) for one hour. Next, the absorbance at 450 nm was measured using a plate reader (SPARK, manufactured by Tecan Trading AG).
The relative value of the absorbance of each fluorescent labeling agent when the absorbance of the well to which the DMSO medium solution had been added was regarded as one was calculated and evaluated based on the following standards. […] At the time of calculating the relative value of the absorbance of the fluorescent labeling agent, a value obtained by subtracting the absorbance before the addition of the cell counting kit-8 (manufactured by Dojindo Laboratories.) from the measured absorbance was used.
• P (Pass): 0.8 or more • F (Failure): Less than 0.8 <Evaluation of Fluorescence Intensity of Fluorescent Labeling Agent>

phospholipids = experiment: Evaluation of property of fluorescent dye being accumulated in phospholipids (labeling agent intensity / dye solution intensity); type: cell-based, Human; settings: A431 cells, one hour; relative value, comparative compound 12 regarded as one; fluorescent wavelength range as in Table 22 (780-800 nm, 630-650 nm in last line)
Procedure: <Evaluation of Property of Fluorescent Dye being Accumulated in Phospholipids>
The property of each dye being accumulated in phospholipids was calculated from the fluorescence intensity integral value obtained from the fluorescent spectrum of the dye solution and the fluorescence intensity obtained from the fluorescence intensity of the fluorescent labeling agent using an expression (1). The relative value of the property of each fluorescent labeling agent being accumulated in phospholipids when the property of the comparative compound 12 being accumulated in phospholipids was regarded as one was calculated and evaluated based on the following standards. In a case where the relative value is evaluated as 3 or more, it can be said that each fluorescent dye has a favorable property of being accumulated in phospholipids.
• 4: The property of being accumulated in phospholipids is 4 or more. • 3: The property of being accumulated in phospholipids is 2 or more and less than 4. • 2: The property of being accumulated in phospholipids is 1 or more and less than 2. • 1: The property of being accumulated in phospholipids is less than 1. Property of being accumulated in phospholipids=fluorescence intensity of fluorescent labeling agent/fluorescence intensity of dye solution (1)

[3] = A431 cells labeled for one hour, Clear/Unclear
[4] = cell counting kit-8, absorbance at 450 nm, pass/fail grade
[5] = A431 cells, labeling agent left one hour
[6] = labeling agent left one hour, absorbance relative to DMSO medium solution regarded as one

Row | Structure (SMILES) | Cell visibility [1, 3] | Cell toxicity [2, 4] | Cell toxicity [2, 6] | further results
1 | CCOc1cccc2c1C1=Nc3c4cccc(OCC)c4c4[n]3[Mg][n]3c(c5cccc(OCC)c5c3=NC2=N1)=NC1=NC(=N4)c2ccc(OS(=O)(=O)c3ccc(CCCN)cc3)cc21 [Fluorescent dye 36] | P | P (P (Pass): 0.8 or more) |  | 
2 | CCCCCCCCCCCCCCCCCCc1ccc2c(c1)C1=NC2=Nc2c3cc(CCCCCCCCCCCCCCCCCC)ccc3c3[n]2[Al]([O]S(=O)(=O)c2ccc(CCNC(=O)C(CC(=O)O)OC(C)=O)cc2)[n]2c(c4ccc(CCCCCCCCCCCCCCCCCC)cc4c2=NC2=NC(=N3)c3cc(CCCCCCCCCCCCCCCCCC)ccc32)=N1 (centres unmarked) [Fluorescent dye 28] |  |  | P (P (Pass): 0.8 or more) | Property of being accumulated in phospholipids (phospholipids): 4 (4: The property of being accumulated in phospholipids is 4 or more.); Cell visibility [1, 5]: P
3 | CCCCCCCCCCCCCCCCCCc1ccc2c(c1)C1=NC2=Nc2c3cc(CCCCCCCCCCCCCCCCCC)ccc3c3[n]2[Al]([O]S(=O)(=O)c2ccc(CCN)cc2)[n]2c(c4ccc(CCCCCCCCCCCCCCCCCC)cc4c2=NC2=NC(=N3)c3cc(CCCCCCCCCCCCCCCCCC)ccc32)=N1 [Fluorescent dye 8] |  |  | P (P (Pass): 0.8 or more) | 
4 | CCOc1cccc2c1C1=NC2=Nc2c3c(OCC)cccc3c3n2[Si](O)(O[Si](C)(C)CCCN)n2c(c4cccc(OCC)c4c2=NC2=NC(=N3)c3c(OCC)cccc32)=N1 (centres unmarked) [Fluorescent dye 5] |  |  | P (P (Pass): 0.8 or more) | 
5 | C[Si](C)(CCCN)[O][Al]1[n]2c3c4cc(C5CCCCC5)c(C5CCCCC5)cc4c2N=C2N=C(N=c4c5cc(C6CCCCC6)c(C6CCCCC6)cc5c([n]41)=NC1=NC(=N3)c3cc(C4CCCCC4)c(C4CCCCC4)cc31)c1cc(C3CCCCC3)c(C3CCCCC3)cc12 [Fluorescent dye 3] |  |  | P (P (Pass): 0.8 or more) | 
6 | CC(C)(C)c1ccc2c(c1)C1=NC2=Nc2c3cc(C(C)(C)C)ccc3c3[n]2[Al]([O]S(=O)(=O)c2ccc(CCN)cc2)[n]2c(c4ccc(C(C)(C)C)cc4c2=NC2=NC(=N3)c3cc(C(C)(C)C)ccc32)=N1 [Fluorescent dye 9] |  |  | P (P (Pass): 0.8 or more) | 
7 | O=C1NC(c2ccccc2)=C2C(=O)N(CCCP(=O)(O)O)C(c3ccccc3)=C12 [Fluorescent dye 60] | P | P (P (Pass): 0.8 or more) |  | 
8 | CCOc1cccc2c1C1=NC2=Nc2c3c(OCC)cccc3c3[n]2[Al]([O]C(=O)CCCN)[n]2c(c4cccc(OCC)c4c2=NC2=NC(=N3)c3c(OCC)cccc32)=N1 [Fluorescent dye 10] |  |  | P (P (Pass): 0.8 or more) | 
9 | NCCc1ccc(S(=O)(=O)[O][Al]2[n]3c4c5cc(C(F)(F)F)ccc5c3N=C3N=C(N=c5c6cc(C(F)(F)F)ccc6c([n]52)=NC2=NC(=N4)c4ccc(C(F)(F)F)cc42)c2ccc(C(F)(F)F)cc23)cc1 [Fluorescent dye 7] |  |  | P (P (Pass): 0.8 or more) | 
10 | CC1=CC(C)=[N+]2C1Cc1ccc(CCC(=O)NCCCN(C)C)n1[B-]2(F)F (centres unmarked) [Fluorescent dye 41] | P | P (P (Pass): 0.8 or more) |  | 
11 | CCOc1cccc2c1C1=NC2=Nc2c3c(OCC)cccc3c3[n]2[Al]([O]P(=O)(O)CCC(=O)O)[n]2c(c4cccc(OCC)c4c2=NC2=NC(=N3)c3c(OCC)cccc32)=N1 [Fluorescent dye 17] |  |  | P (P (Pass): 0.8 or more) | Property of being accumulated in phospholipids (phospholipids): 4 (4: The property of being accumulated in phospholipids is 4 or more.); Cell visibility [1, 5]: P
12 | O=C(O)C(F)(F)C(F)(F)C(=O)NCCc1ccc(S(=O)(=O)[O][Al]2[n]3c4c5cc(C(F)(F)F)ccc5c3N=C3N=C(N=c5c6cc(C(F)(F)F)ccc6c([n]52)=NC2=NC(=N4)c4ccc(C(F)(F)F)cc42)c2ccc(C(F)(F)F)cc23)cc1 [Fluorescent dye 27] |  |  | P (P (Pass): 0.8 or more) | Property of being accumulated in phospholipids (phospholipids): 4 (4: The property of being accumulated in phospholipids is 4 or more.); Cell visibility [1, 5]: P
13 | CCN(CC)c1ccc2c(-c3ccccc3C(=O)NCCCN(C)C)c3ccc(=[N+](CC)CC)cc-3oc2c1.[Cl-] [Fluorescent dye 40] | P | P (P (Pass): 0.8 or more) |  | 
14 | CCOc1cccc2c1C1=NC2=Nc2c3c(OCC)cccc3c3[n]2[Al]([O]S(=O)(=O)c2ccc(CCN)cc2)[n]2c(c4cccc(OCC)c4c2=NC2=NC(=N3)c3c(OCC)cccc32)=N1 [Fluorescent dye 6] |  |  | P (P (Pass): 0.8 or more) | 
15 | CN(C)CCCNC(=O)c1ccc(C(=O)O)c(-c2c3ccc(=O)cc-3oc3cc(O)ccc23)c1 [Fluorescent dye 39] | P | P (P (Pass): 0.8 or more) |  | 
16 | CCOc1cccc2c1C1=Nc3c4cccc(OCC)c4c4[n]3[Al-2]35([O][PH](=O)CCCO)[n]6c(c7cccc(OCC)c7c6=NC2=[N+]13)=NC1=[N+]5C(=N4)c2cccc(OCC)c21 (centres unmarked) [Fluorescent dye 54] | P | P (P (Pass): 0.8 or more) |  | 
17 | CN1/C(=C/C=C/C=C/C2=[N+](CCCCCC(=O)NCCCO)c3ccccc3C2(C)C)C(C)(C)c2ccccc21 [Fluorescent dye 62] | P | P (P (Pass): 0.8 or more) |  | 
18 | CC(C)C(Oc1cccc2c1C1=NC2=Nc2c3c(OC(C(C)C)C(C)C)cccc3c3[n]2[Al]([O]S(=O)(=O)CCCOCCC(=O)O)[n]2c(c4cccc(OC(C(C)C)C(C)C)c4c2=NC2=NC(=N3)c3c(OC(C(C)C)C(C)C)cccc32)=N1)C(C)C [Fluorescent dye 12] |  |  | P (P (Pass): 0.8 or more) | 
19 | O=C(O)CCCN1C(=O)C2=C(c3ccccc3)NC(=O)C2=C1c1ccccc1 [Fluorescent dye 38] | P | P (P (Pass): 0.8 or more) |  | 
20 | CCOc1cccc2c1C1=Nc3c4cccc(OCC)c4c4[n]3[Al-2]35([O]S(=O)(=O)c6ccc(O)cc6)[n]6c(c7cccc(OCC)c7c6=NC2=[N+]13)=NC1=[N+]5C(=N4)c2cccc(OCC)c21 [Fluorescent dye 55] | P | P (P (Pass): 0.8 or more) |  | 
21 | C[Si](C)(CCCN)[O][Al]1[n]2c3c4cccc(Sc5ccccc5)c4c2N=C2N=C(N=c4c5cccc(Sc6ccccc6)c5c([n]41)=NC1=NC(=N3)c3c(Sc4ccccc4)cccc31)c1c(Sc3ccccc3)cccc12 [Fluorescent dye 4] |  |  | P (P (Pass): 0.8 or more) | 
22 | CC1=CC(C)=[N+]2C1=Cc1ccc(CCC(=O)NCCCO)n1[B-]2(F)F [Fluorescent dye 63] | P | P (P (Pass): 0.8 or more) |  | 
23 | CCOc1cccc2c1C1=NC2=Nc2c3c(OCC)cccc3c3[n]2[Al]([O]C(=O)c2ccc(C(=O)O)cc2)[n]2c(c4cccc(OCC)c4c2=NC2=NC(=N3)c3c(OCC)cccc32)=N1 [Fluorescent dye 11] |  |  | P (P (Pass): 0.8 or more) | 
24 | CCOc1cccc2c1C1=Nc3c4cccc(OCC)c4c4[n]3[Zn][n]3c(c5cccc(OCC)c5c3=NC2=N1)=NC1=NC(=N4)c2ccc(OS(=O)(=O)c3ccc(CCCN)cc3)cc21 [Fluorescent dye 37] | P | P (P (Pass): 0.8 or more) |  | 
